Patent EP2527319A1, “Crystalline forms of pregabalin and co-formers in the treatment of pain” (Laboratorios del. Dr. Esteve, S.A., priority 2011, dated 2012)
In brackets after ≈: the same amount, converted by molar mass. Where two headings read alike, the source gives them in different places.

Columns and labels:
[1] = for hygroscopicity (classification from DVS): 15 to 95% RH, result in words; for hygroscopicity (classification from DVS) / Δ %weight 24 h: DVS; for Δ %weight 24 h: humidity increased stepwise from 15 to 95% RH at constant temperature; for Hygroscopicity (85-95%): summary table, same figures as Δ %weight 24 h of Table 1
Procedure: The objective was to measure the hygroscopicity of some crystalline forms of the present invention. The percentage increase of mass was calculated in order to evaluate the adsorption of water in the samples.
Dynamic Vapour Sorption (DVS) analysis is a technique specifically designed to provide information related to material response to changes in relative humidity and T°C. A Q5000 SA DVS equipment from TA Instruments was used for running the experiment.
The variation of the weight is controlled and the following percentage is calculated: Δ %weight = (Pn-P1)/P1 x 100 [formula] wherein: P1 is the initial weight , Pn is the weight measured for the sample.

[2] = for Hygroscopicity (85-95%): summary table, 85-95% RH, result in words; for Hygroscopicity: storage at ambient and humidity (40 C, 85-95% RH) conditions
[3] = pH 7.4; free form; cited from earlier work

| SMILES | hygroscopicity (classification from DVS) [1] | Δ %weight 24 h [1] | Hygroscopicity (85-95%) [1] [%] | Hygroscopicity (85-95%) [2] | solubility in water [3] [mg/mL] | Hygroscopicity [2] | hygroscopicity (classification from DVS) ([1]; listed as sample 1) |
| --- | --- | --- | --- | --- | --- | --- | --- |
| CC(C)C[C@H](CN)CC(=O)O.CC(C)C[C@H](CN)CC(=O)O.O.O=C(O)/C=C\C(=O)O.O=C(O)/C=C\C(=O)O [Example 7, (S)-Pregabalin - maleic acid - H2O (1:1:0.5)] | very hygroscopic | 37,9% | 37.9 | – | – | – | – |
| CC(C)C[C@H](CN)CC(=O)O [PGB free base, (S)-3-(aminomethyl)-5-methylhexanoic acid, reference compound] | – | – | – | Non-hygroscopic | 32 (≈ 201 mM) | – | – |
| CC(C)C[C@H](CN)CC(=O)O.CCCCCCCCCCCC(=O)O [Example 11, (S)-Pregabalin - lauric acid (1:1)] | not hygroscopic | 0% | – | Non-hygroscopic | – | non-hygroscopic | – |
| CC(C)C[C@H](CN)CC(=O)O.Cl.O=C(O)[C@@H]1CCCN1 [Example 6, (S)-Pregabalin - L-proline - HCl (1:1:1)] | deliquescent | 95% | 95 | – | – | hygroscopic tendencies, particularly at humid conditions, to such an extent that it liquefied | sufficient water was absorbed to form a liquid |
